# Entries after “also recorded” stand apart in the source; their conditions may differ.
# Tests used:
# rat heart = conditions: Vitamin C alone, hypoxia, previous studies; cited from earlier work
# MCF7 cells [1] = test: Metabolic flux analysis (Seahorse XFe96, OCR and ECAR); assay type: cell-based, human
# Experimental: Metabolic Flux Analysis: Real-time oxygen consumption rates (OCR) and extracellular acidification rates (ECAR) rates in MCF7 cells were determined using the Seahorse Extracellular Flux (XFe96) analyzer (Seahorse Bioscience, USA). Briefly, 1.5×10^4 cells per well were seeded into XFe96 well cell culture plates, and incubated overnight to allow cell attachment. Then, cells were treated with antibiotics for 72 h. Vehicle-alone control cells were processed in parallel. After 72 hours of incubation, cells were washed in pre-warmed XF assay media (or for OCR measurement, XF assay media supplemented with 10 mM glucose, 1 mM Pyruvate, 2 mM L-glutamine and adjusted at 7.4 pH). Cells were then maintained in 175 μL/well of XF assay media at 37° C., in a non-CO2 incubator for 1 hour. During the incubation time, we loaded 25 μL of 80 mM glucose, 9 μM oligomycin, and 1M 2-deoxyglucose (for ECAR measurement) or 10 μM oligomycin, 9 μM FCCP, 10 μM rotenone, 10 μM antimycin A (for OCR measurement), in XF assay media into the injection ports in the XFe96 sensor cartridge. Measurements were normalized by protein content (Bradford assay). Data sets were analyzed using XFe96 software and GraphPad Prism software, using one-way ANOVA and Student's t-test calculations. All experiments were performed in quintuplicate, three times independently.
# U937 cells = U937 cells incubated 15 minutes in media containing 3 μM Vitamin C; cited from earlier work
# [2] = oral administration; cited from earlier work
# MCF7 cells [3] = test: Mammosphere formation assay (MFE, CSC propagation) in MCF7 cells; assay type: cell-based, human
# Experimental: The data represents mammosphere counts after exposure to a compound, as a percentage of a control. The compounds were tested at concentrations of 1.5 μM, 3 μM, 6 μM, and 12 μM.
# Mammosphere Formation Assay: A single cell suspension was prepared using enzymatic (1× Trypsin-EDTA, Sigma Aldrich, #T3924), and manual disaggregation (25 gauge needle). Cells were plated at a density of 500 cells/cm2 in mammosphere medium (DMEM-F12+B27+20 ng/ml EGF+PenStrep) under non-adherent conditions, in culture dishes pre-coated with (2-hydroxyethylmethacrylate) (poly-HEMA, Sigma, #P3932), called “tumor-sphere plates”. Vehicle alone (DMSO) control cells were processed in parallel. Cells were grown for 5 days and maintained in a humidified incubator at 37° C. After 5 days of culture, 3D mammospheres >50 μm were counted using an eye piece (“graticule”), and the percentage of cells plated which formed spheres was calculated and is referred to as percent mammosphere formation (MFE, and was normalized to one (1=100% MSF).
# senescent fibroblasts = conditions: azithromycin by itself; cited from earlier work
# CSCs = test: Inhibition of CSC propagation / CSC inhibition activity (assay not specified); assay type: cell-based
# BJ cells = test: Cell viability, bulk BJ cells; assay type: cell-based; conditions: range of concentrations up to 20 μM
# Source text: (§1) Embodiments of therapeutic agents conjugated with targeting signals have shown less toxicity in bulk cancer cells and normal fibroblasts compared to unconjugated therapeutic agents. For example, FIGS. 17A and 17B show cell viability data for doxycycline and the doxycycline-myristate conjugate shown as compound [1], for bulk MCF7 cells and bulk BJ cells, respectively. The data represents cell viability expressed as a percentage of a control. […] Similar behavior has been seen in other therapeutic agents conjugated with targeting signals.
# MCF7 cells [4] = test: Cell viability, bulk MCF7 cells; assay type: cell-based, human; conditions: range of concentrations up to 20 μM
# Source text: as §1
# MCF7 cells [5] = test: Cellular retention by green auto-fluorescence; assay type: cell-based, human; conditions: 10 μM, 72 hours, washed with PBS
# Experimental: FIGS. 16A-16C are images comparing the cellular retention of the doxycycline-myristate conjugate, to unconjugated doxycycline. MCF7 cells were cultured in tissue culture media in the presence of either therapeutic agent (i.e., the doxycycline-myristate conjugate or unconjugated doxycycline), at a concentration of 10 μM, for 72 hours. Then, the cells were washed with PBS and any therapeutic agent retained within the cells was visualized by green auto-fluorescence, from the excitation of the tetracycline ring structure. Control cells were incubated with vehicle-alone. […] The original color in the images has been inverted, to […], and the darker regions of FIG. 16B indicate increased cellular retention of the conjugated therapeutic agent.
# [6] = tested on: breast cancer tumor samples; test: ABC trial pilot study: CSC markers in tumor samples after oral doxycycline; assay type: in vivo, human
# Experimental: Doxycycline impacts cancer growth through inhibition of CSC propagation with an IC-50 between 2-to-10 μM. The Antibiotic for Breast Cancer (ABC) trial was conducted at The University of Pisa Hospital. The ABC trial aimed to assess the anti-proliferative and anti-CSC mechanistic actions of doxycycline in early breast cancer patients. […] A pilot study of the ABC trial confirmed that doxycycline treatment successfully decreases the expression of CSC markers in breast cancer tumor samples. […] This represents a 90% positive response rate.
# [7] = MCF7 monolayers pre-treated 3-days, doxycycline 1 μM, azithromycin 1 μM, Vitamin C 250 μM as applicable, vs control
# [8] = breast cancer patients treated with doxycycline
compound,measurement,setting,value
"O=C1O[C@H]([C@@H](O)CO)C(O)=C1O [Vit C, Ascorbic Acid]",increase of mitochondrial ATP production,rat heart,up to 1.5 fold
same,ATP production / ATP levels,MCF7 cells [1]; [7],significantly increased
same,basal respiration,MCF7 cells [1]; [7],significantly increased
same,glycolysis (ECAR),MCF7 cells [1]; [7],significantly increased
same,glycolytic reserve,MCF7 cells [1]; [7],significantly increased
same,glycolytic reserve capacity,MCF7 cells [1]; [7],decreasing
same,maximal respiration,MCF7 cells [1]; [7],significantly increased
same,oxidative mitochondrial metabolism (OCR),MCF7 cells [1]; [7],significantly increased; also recorded: increases
same,increase of mitochondrial ATP production,"MCF7 cells [1]; Vitamin C alone, MCF7 cells",up to 2 fold
same,Vitamin C level reached in mitochondria,U937 cells,5 mM
same,peak Vitamin C concentration in blood/serum/plasma,[2],about 250
CC[C@H]1OC(=O)[C@H](C)[C@@H](O[C@H]2C[C@@](C)(OC)[C@@H](O)[C@H](C)O2)[C@H](C)[C@@H](O[C@@H]2O[C@H](C)C[C@H](N(C)C)[C@H]2O)[C@](C)(O)C[C@@H](C)CN(C)[C@H](C)[C@@H](O)[C@]1(C)O [azithromycin],inhibition of mammosphere formation,MCF7 cells [3]; drug alone at low concentrations (0.1 μM and 1 μM),little or no effect
same,efficiency of senolytic activity (removal of senescent fibroblasts),senescent fibroblasts,~97%
CCCCCCCCCCCCCC(=O)N(C)[C@H]1C[C@@H](C)O[C@@H](O[C@@H]2[C@@H](C)[C@H](O[C@H]3C[C@@](C)(OC)[C@@H](O)[C@H](C)O3)[C@@H](C)C(=O)O[C@H](CC)[C@@](C)(O)[C@H](O)[C@@H](C)N(C)C[C@H](C)C[C@@]2(C)O)[C@@H]1O [compound [15]],potency and selectivity for CSCs compared to azithromycin alone,CSCs,improved potency and selectivity
"CCCCCCCCCCCCCC(=O)Nc1ccc2c(c1O)C(=O)C1=C(O)[C@]3(O)C(=O)C(C(N)=O)=C(O)[C@@H](N(C)C)C3[C@@H](O)C1[C@H]2C (stereo partly drawn) [doxycycline-myristate conjugate, (4S,5S,6R,12aS)-4-(dimethylamino)-3,5,10,12,12a-pentahydroxy-6-methyl-1,11-dioxo-9-(tetradecanoylamino)-4a,5,5a,6-tetrahydro-4H-tetracene-2-carboxamide]",toxicity (cell viability as percentage of control) compared with doxycycline,BJ cells,less toxic
same,toxicity (cell viability as percentage of control) compared with doxycycline,MCF7 cells [4],less toxic
same,potency in mammosphere assay compared with unconjugated doxycycline,"MCF7 cells [3]; MCF7, 1.5 μM, 3 μM, 6 μM and 12 μM, mammosphere counts as percentage of control",more potent
same,times more potent than doxycycline for inhibiting CSC propagation,"MCF7 cells [3]; from IC50 values, MCF7 mammosphere assay",over 5 times
same,CSC inhibition activity compared with the unconjugated antibiotic,CSCs; fatty acid conjugates (myristate where stated),better CSC inhibitory properties
same,cellular retention compared to doxycycline alone,MCF7 cells [5],significantly improved cellular retention
C[C@H]1c2cccc(O)c2C(=O)C2=C(O)[C@]3(O)C(=O)C(C(N)=O)=C(O)[C@@H](N(C)C)[C@@H]3[C@@H](O)[C@@H]21 [doxycycline],positive response rate (CD44),[6]; [8],90%
same,"rise in CD44, one patient",[6]; [8],15%
same,"decrease in the stemness marker CD44, post-doxycycline vs pre-doxycycline tumor samples","[6]; early breast cancer patients, short-term pre-operative oral doxycycline",40%
